Experimental data from the supplement of paper PMC10307832.

Experiments:
Assay in all cases: relative viability (nuclei count vs DMSO), 5 days (fraction); higher = more cells survive
Daporinad + Crizotinib = compound: O=C(/C=C/c1cccnc1)NCCCCC1CCN(C(=O)c2ccccc2)CC1 [Daporinad] + C[C@@H](Oc1cc(-c2cnn(C3CCNCC3)c2)cnc1N)c1c(Cl)ccc(F)c1Cl [Crizotinib] (partner 1 µM)
In short: (§1)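 One day after seeding in 1536-well plates, lung cancer cell lines were dosed by pin tool. Dosing was either single-drug or a fixed anchor-drug dose plus five library-drug doses (not always all listed) in √10 steps. After 5 days, nuclei were stained in one fix-and-stain step and counted on 4× images, and relative viability is the nuclei count of treated wells over that of vehicle wells, given as the median of duplicate plates.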

R406 + Olaparib = compound: COc1cc(Nc2ncc(F)c(Nc3ccc4c(n3)NC(=O)C(C)(C)O4)n2)cc(OC)c1OC [R406] + O=C(c1cc(Cc2n[nH]c(=O)c3ccccc23)ccc1F)N1CCN(C(=O)C2CC2)CC1 [Olaparib] (partner 8 µM)
In short: as §1

Daporinad + Foretinib = compound: O=C(/C=C/c1cccnc1)NCCCCC1CCN(C(=O)c2ccccc2)CC1 [Daporinad] + COc1cc2c(Oc3ccc(NC(=O)C4(C(=O)Nc5ccc(F)cc5)CC4)cc3F)ccnc2cc1OCCCN1CCOCC1 [Foretinib] (partner 0.25 µM)
In short: as §1

R406 + AZD7762 = compound: COc1cc(Nc2ncc(F)c(Nc3ccc4c(n3)NC(=O)C(C)(C)O4)n2)cc(OC)c1OC [R406] + NC(=O)Nc1cc(-c2cccc(F)c2)sc1C(=O)N[C@H]1CCCNC1 [AZD7762] (partner 0.2 µM)
In short: as §1

| Cell Line | relative viability (Daporinad + Crizotinib; first compound 0.0005 µM) | relative viability (Daporinad + Crizotinib; first compound 0.001581 µM) | relative viability (Daporinad + Crizotinib; first compound 0.005 µM) | relative viability (Daporinad + Crizotinib; first compound 0.01581 µM) | relative viability (R406 + Olaparib; first compound 0.08 µM) | relative viability (R406 + Olaparib; first compound 0.253 µM) | relative viability (R406 + Olaparib; first compound 0.8 µM) | relative viability (R406 + Olaparib; first compound 2.53 µM) | relative viability (R406 + Olaparib; first compound 8 µM) | relative viability (Daporinad + Foretinib; first compound 0.0005 µM) | relative viability (Daporinad + Foretinib; first compound 0.001581 µM) | relative viability (Daporinad + Foretinib; first compound 0.005 µM) | relative viability (Daporinad + Foretinib; first compound 0.01581 µM) | relative viability (R406 + AZD7762; first compound 0.08 µM) | relative viability (R406 + AZD7762; first compound 0.253 µM) | relative viability (R406 + AZD7762; first compound 0.8 µM) | relative viability (R406 + AZD7762; first compound 2.53 µM) | relative viability (R406 + AZD7762; first compound 8 µM) |
| --- | --- | --- | --- | --- | --- | --- | --- | --- | --- | --- | --- | --- | --- | --- | --- | --- | --- | --- |
| HCC-15 | 0.785 | 0.853 | 0.907 | 0.831 | 0.653 | 0.839 | 0.675 | 0.725 | 0.505 | 0.916 | 1.22 | 1.12 | 1.12 | 1.35 | 1.33 | 1.38 | 1.19 | 0.751 |
| HCC-78 | 0.333 | 0.362 | 0.331 | 0.428 | 0.83 | 0.896 | 0.848 | 0.656 | 0.394 | 0.54 |  | 0.594 | 0.62 | 0.571 | 0.861 | 0.623 | 0.619 | 0.449 |
| HCC-366 | 0.696 | 0.628 | 0.864 | 0.634 | 0.33 | 0.391 | 0.349 | 0.316 | 0.0913 | 0.962 | 0.844 | 0.972 | 0.959 | 0.269 | 0.294 | 0.368 | 0.267 | 0.243 |
| HCC-827 | 0.963 | 1.01 | 0.936 | 0.931 | 0.724 | 0.663 | 0.667 | 0.522 | 0.545 | 0.984 | 1.14 | 1.1 | 1.11 | 0.336 | 0.239 | 0.234 | 0.176 | 0.134 |
| HOP-62 |  | 1.05 | 0.994 | 0.789 | 0.252 | 0.415 | 0.575 | 0.517 | 0.495 | 0.838 | 1.01 | 1.1 | 0.639 | 0.76 | 0.813 | 0.793 | 0.531 | 0.585 |
| LC-2-ad | 0.501 | 0.513 | 0.491 | 0.46 | 0.728 | 0.809 | 0.694 | 0.699 | 0.45 | 1.05 | 0.97 | 0.969 | 1.06 | 0.856 | 0.898 | 0.89 | 0.827 | 0.343 |
| LCLC-97TM1 | 0.443 | 0.402 | 0.605 | 0.323 | 0.371 | 0.465 | 0.534 | 0.253 | 0.179 | 0.832 | 0.929 | 1.08 | 1.03 | 0.207 | 0.313 | 0.327 | 0.164 | 0.219 |
| LCLC-103H | 1.08 | 1.03 | 1.14 | 1.09 | 0.77 | 0.888 | 0.81 | 0.762 | 0.302 | 0.846 | 0.834 | 0.884 | 0.868 | 0.662 | 0.844 | 0.813 | 0.747 | 0.569 |
| LK-2 | 0.327 | 0.32 | 0.296 | 0.283 | 0.592 | 1.13 | 0.888 | 0.661 | 0.305 | 1.08 | 1.54 | 1.29 | 0.308 | 0.373 | 0.407 | 0.333 | 0.354 | 0.104 |
| LOU-NH91 | 0.782 | 0.801 | 0.862 | 0.913 | 0.898 | 0.956 | 0.934 | 0.658 | 0.478 | 0.95 | 0.991 | 1.11 | 1.22 | 0.718 | 0.769 | 0.706 | 0.574 | 0.473 |
| LU99A | 0.527 | 0.596 | 0.685 | 0.549 | 0.244 | 0.258 | 0.267 | 0.218 | 0.234 | 0.774 | 0.807 | 0.796 | 0.772 | 0.317 | 0.358 | 0.39 | 0.413 | 0.283 |
| LXF-289 | 0.784 | 0.899 | 0.848 | 0.854 | 1.08 | 1.18 | 1.12 | 1.02 | 0.219 | 0.892 | 1.09 | 0.968 | 0.962 | 1.03 | 1.19 | 1.11 | 0.88 | 0.762 |
| NCI-H23 | 0.744 | 0.667 | 0.678 | 0.398 | 0.277 | 0.271 | 0.236 | 0.263 | 0.139 | 0.898 | 1.02 | 0.991 | 0.611 | 0.215 | 0.265 | 0.283 | 0.25 | 0.269 |
| NCI-H322M | 0.847 | 1.03 | 0.985 | 0.592 | 0.654 | 0.695 | 0.826 | 0.641 | 0.488 | 0.964 | 1.13 | 0.886 | 0.478 | 0.453 | 0.54 | 0.588 | 0.36 | 0.423 |
| NCI-H358 | 0.693 | 0.709 | 0.684 | 0.562 | 0.562 | 0.617 | 0.632 | 0.279 | 0.209 | 0.689 | 0.898 | 0.827 | 0.545 | 0.502 | 0.472 | 0.509 | 0.272 | 0.217 |
| NCI-H441 | 0.79 | 0.916 | 1.1 | 1.15 | 0.429 | 0.693 | 0.619 | 0.489 | 0.322 | 1.24 | 0.997 | 1.19 | 0.911 | 1.03 | 1.03 | 1.26 | 0.953 | 0.958 |
